Results from US20110207796A1, “ALPHA-SYNUCLEIN KINASE” (Elan Pharma International Limited, priority 2008, published 2011).
Where two headings read alike, the source gives them in different places.

Assays:
[1] = tested on: synuclein phosphorylation by endogenous kinase; test: kinase inhibitor treatment of rat ventral mesencephalon (RVM) cultures transduced with E46K-synuclein; assay type: cell-based
Description: (§1) Rat Ventral Mesencephalon (RVM) cultures were prepared from E15 Wistar rats. The RVM cultures were cultured for 2 days and transduced with 0.75 MOI E46K-Synuclein lentivirus alone, or 0.75 MOI E46K-Synuclein lentivirus plus 0.75 MOI ca-PLK2 lentivirus. […] Transduced cultures were maintained in neuronal media with B27/1% FBS and 37° C./5% CO2 until treated with inhibitors. On DIV 17 (which corresponds to 15 days after viral transduction of the cultures) cells were treated with inhibitors for two hours. Cells were then harvested as detailed above in neuronal media with B27/1% FBS. A Micro BCA (Pierce) total protein assay, and total synuclein and phospho-synuclein ELISAs were performed on each plate of treated cells using standard methods.

[2] = tested on: synuclein phosphorylation by endogenous kinase; test: kinase inhibitor treatment of mouse cortical cultures (MCC), total and phospho-synuclein ELISA; assay type: cell-based
Description: Mouse cortical cultures from fetal (i) Swiss-Webster, (ii) C56BL/6 WT and (iii) C56BL/6 E46K-Synuclein Trangenic mice were prepared and maintained in B27/DMEM/1% Penicillin-Streptomycin at 37° C./10% CO2 for three to fourteen days and then treated with kinase inhibitors.
Cultures were exposed to inhibitors for two hours in B27/DMEM/1% Penicillin-Streptomycin. Cells were immediately washed in 100 μL of PBS plus Mg^2+ and Ca^2+, and harvested in ice-cold CEB minus EGTA plus protease inhibitors, frozen on dry ice and stored at −80° C. until processed. A Micro BCA (Pierce) total protein assay, and total synuclein and phospho-synuclein ELISAs were performed on each plate of treated cells using standard methods.

PLK2 [3] = target: T1, PLK2 (Homo sapiens, UniProt Q9NYY3); test: in vitro biochemical assay of PLK2-driven synuclein phosphorylation
T1 sequence (Q9NYY3 whole entry): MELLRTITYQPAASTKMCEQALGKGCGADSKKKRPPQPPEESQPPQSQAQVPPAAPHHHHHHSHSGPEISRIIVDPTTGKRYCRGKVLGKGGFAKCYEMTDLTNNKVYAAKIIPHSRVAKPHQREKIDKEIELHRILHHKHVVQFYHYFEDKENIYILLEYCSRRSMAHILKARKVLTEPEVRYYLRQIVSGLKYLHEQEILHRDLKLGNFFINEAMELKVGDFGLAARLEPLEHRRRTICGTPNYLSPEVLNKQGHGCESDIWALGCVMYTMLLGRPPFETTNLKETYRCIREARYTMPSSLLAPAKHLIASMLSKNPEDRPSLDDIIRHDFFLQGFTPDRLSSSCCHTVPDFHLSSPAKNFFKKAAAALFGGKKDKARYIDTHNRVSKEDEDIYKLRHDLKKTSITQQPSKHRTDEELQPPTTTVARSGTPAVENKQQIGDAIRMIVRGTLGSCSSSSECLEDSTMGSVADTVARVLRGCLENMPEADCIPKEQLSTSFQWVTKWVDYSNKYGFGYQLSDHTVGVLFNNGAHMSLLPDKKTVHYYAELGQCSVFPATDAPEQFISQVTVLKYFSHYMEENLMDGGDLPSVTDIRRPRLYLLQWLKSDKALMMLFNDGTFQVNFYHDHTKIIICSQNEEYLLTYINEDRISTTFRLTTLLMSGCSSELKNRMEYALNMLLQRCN
Description: The reaction was incubated at 37° C. The activity was analyzed by autoradiography.
In vitro biochemical assays using each of the four PLK family members as the kinase to phosphorylate synuclein were conducted.

[4] = tested on: endogenous kinase (synuclein phosphorylation); test: HEK-293 cells overexpressing synuclein with empty vector, inhibition of synuclein phosphorylation; assay type: cell-based, human; settings: for EC50: Homo sapiens
Description: (§2) All vectors had the sequence coding for the protein of interest. Transfection was accomplished using Lipofectamine 2000 (Invitrogen, Carlsbad, Calif.) with 0.08 μg vector. Cells were washed and harvested 48 hours post-transfection. A Micro BCA (Pierce) total protein assay and total synuclein and phospho-synuclein ELISAs were performed on each plate of treated cells.

PLK2 [5] = target: T1, PLK2; test: HEK-293 cells overexpressing synuclein and PLK2, inhibition of synuclein phosphorylation; assay type: cell-based; design: expressed in transfected cells; host or cells: HEK-293
Description: as §2

[6] = tested on: synuclein phosphorylation by constitutively active PLK2 (caPLK2); test: kinase inhibitor treatment of RVM cultures transduced with E46K-synuclein plus ca-PLK2; assay type: cell-based; settings: rat ventral mesencephalon cultures
Description: as §1

PLK4 = target: T2, PLK4 (Homo sapiens, UniProt O00444); test: HEK-293 cells overexpressing synuclein and PLK4, inhibition of synuclein phosphorylation; assay type: cell-based; settings: HEK-293
T2 sequence (O00444 1-970): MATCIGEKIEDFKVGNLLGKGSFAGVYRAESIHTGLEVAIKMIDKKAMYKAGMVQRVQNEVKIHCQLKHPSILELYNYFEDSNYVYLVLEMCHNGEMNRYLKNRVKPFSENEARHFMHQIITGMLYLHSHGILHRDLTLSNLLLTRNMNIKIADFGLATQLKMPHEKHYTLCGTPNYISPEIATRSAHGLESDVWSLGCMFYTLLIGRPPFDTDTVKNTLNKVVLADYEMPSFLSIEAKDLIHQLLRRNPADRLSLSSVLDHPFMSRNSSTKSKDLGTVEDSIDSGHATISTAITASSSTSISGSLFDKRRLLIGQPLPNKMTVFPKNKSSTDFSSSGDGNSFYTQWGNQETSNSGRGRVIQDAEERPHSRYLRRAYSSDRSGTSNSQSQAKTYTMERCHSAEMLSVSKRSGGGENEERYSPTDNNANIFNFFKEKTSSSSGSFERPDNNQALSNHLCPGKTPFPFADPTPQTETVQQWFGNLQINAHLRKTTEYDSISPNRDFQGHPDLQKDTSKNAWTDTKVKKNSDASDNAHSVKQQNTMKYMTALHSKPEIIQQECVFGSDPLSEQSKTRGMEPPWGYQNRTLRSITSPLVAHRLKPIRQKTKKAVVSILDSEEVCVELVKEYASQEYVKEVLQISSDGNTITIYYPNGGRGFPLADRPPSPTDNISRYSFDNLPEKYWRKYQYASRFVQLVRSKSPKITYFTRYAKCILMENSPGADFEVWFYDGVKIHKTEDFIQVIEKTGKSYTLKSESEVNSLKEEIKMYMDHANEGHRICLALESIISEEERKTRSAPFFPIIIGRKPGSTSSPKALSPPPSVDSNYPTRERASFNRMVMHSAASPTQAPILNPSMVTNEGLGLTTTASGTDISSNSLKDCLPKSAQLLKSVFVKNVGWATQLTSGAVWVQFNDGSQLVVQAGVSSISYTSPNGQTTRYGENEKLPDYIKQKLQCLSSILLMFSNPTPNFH
Description: as §2

PLK3 = target: T3, PLK3 (Homo sapiens, UniProt Q9H4B4); test: HEK-293 cells overexpressing synuclein and PLK3, inhibition of synuclein phosphorylation; assay type: cell-based
T3 construct: expressed in transfected cells; host or cells: HEK-293
T3 sequence (Q9H4B4 whole entry): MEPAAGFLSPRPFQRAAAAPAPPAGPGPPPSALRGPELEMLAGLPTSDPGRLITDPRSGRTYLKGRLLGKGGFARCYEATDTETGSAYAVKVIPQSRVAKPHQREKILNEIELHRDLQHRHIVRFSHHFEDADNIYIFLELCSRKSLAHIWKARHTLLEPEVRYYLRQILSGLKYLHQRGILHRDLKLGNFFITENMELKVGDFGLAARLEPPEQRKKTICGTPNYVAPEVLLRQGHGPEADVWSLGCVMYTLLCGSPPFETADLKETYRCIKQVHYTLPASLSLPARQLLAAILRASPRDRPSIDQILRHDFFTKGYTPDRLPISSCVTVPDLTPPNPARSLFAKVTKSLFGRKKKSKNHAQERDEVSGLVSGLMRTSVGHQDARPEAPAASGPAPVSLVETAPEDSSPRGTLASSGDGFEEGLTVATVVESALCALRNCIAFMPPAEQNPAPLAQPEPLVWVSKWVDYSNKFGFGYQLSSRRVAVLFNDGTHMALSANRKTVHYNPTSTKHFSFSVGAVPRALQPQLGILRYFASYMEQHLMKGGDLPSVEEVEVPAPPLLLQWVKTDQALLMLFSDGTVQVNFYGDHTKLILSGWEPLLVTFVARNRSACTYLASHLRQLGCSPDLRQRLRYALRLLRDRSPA
Description: as §2

[7] = tested on: synuclein phosphorylation (serine-129); test: inhibition of synuclein phosphorylation across the cellular paradigms (primary neuronal cultures and 293 cells); assay type: cell-based, mouse, rat and human; settings: Homo sapiens, HEK293; most of the cellular paradigms / cell types tested; read-out: EC50 inhibition of synuclein phosphorylation, cellular paradigms
[8] = tested on: synuclein phosphorylation; test: overexpression of PLK family members with WT-synuclein in HEK-293 cells, phospho-synuclein ELISA; assay type: cell-based, human
Description: as §2, with “HEK-293 naïve cells were transfected with an expression vector encoding PLK1, PLK2, PLK3, or PLK4 under the control of a CMV promoter, or empty vector, together with an expression vector encoding WT-synuclein. All” for “All”

Q: With COC[C@H]1OC(=O)c2coc3c2[C@@]1(C)C1=C(C3=O)[C@@H]2CCC(=O)[C@@]2(C)C[C@H]1OC(C)=O [Wortmannin] as the compound, how does the EC50 [1] read?
A: > 100 µM

Q: What about the EC50 ([2]; E46K-Synuclein transgenic mouse cortical cultures, read-out: EC50, E46K-Syn TG MCC) of the same compound?
A: > 100 µM

Q: What about the EC50 ([2]; WT mouse cortical cultures, read-out: EC50, WT-MCC) of the same compound?
A: > 100 µM

Q: And the IC50 (PLK2 [3]; in vitro PLK2-driven synuclein phosphorylation, read-out: IC50, Straight Biochemical)?
A: > 100 µM

Q: What about the EC50 ([4]; HEK293, 293 cells, Table 18, read-out: EC50, Endogenous Kinase (293)) of the same compound?
A: > 100 µM

Q: What about the EC50 (PLK2 [5]) of the same compound?
A: > 100 µM

Q: What about the EC50 [6] of the same compound?
A: > 100 µM

Q: For Brc1c(Br)c(Br)c2[nH]nnc2c1Br [TBB], which “effect on synuclein phosphorylation” value ([2]; MCC, even at concentrations of 100 μM) is on record?
A: no effect

Q: What does the source list for NC(=O)c1sc2c([N+](=O)[O-])cc(C(F)(F)F)cc2[n+]1[O-] [ELN-481080]?
A: EC50 synuclein phosphorylation, over-expressed PLK4 (PLK4): not reached; EC50 [1]: ~100 µM; EC50 synuclein phosphorylation, over-expressed PLK3 (PLK3; HEK-293): not reached; EC50 (PLK3; HEK-293, Example 16, Table 21, read-out: EC50 Based on the Percent Inhibition of Synuclein Phosphorylation, Synuclein + PLK3): > 100 µM; Rank Order of Potency Based on Percent Inhibition of Synuclein Phosphorylation, Synuclein + PLK3 (PLK3; HEK-293, Table 22): 3; inhibition of synuclein phosphorylation, over-expressed PLK3 (PLK3; at concentrations of 30-100 μM): 30-40%; EC50 [7]: 12 to 38 µM; IC50 (PLK2 [3]; PLK2-driven synuclein phosphorylation, read-out: IC50 in the in vitro biochemical assay): 7.7 µM; rank order of potency, Straight Biochemical (PLK2 [3]; rank among 8 inhibitors): 3; rank order of potency, Endogenous Kinase (293) ([4]; 293 cells, Table 19): 4; EC50 ([4]; HEK293, read-out: EC50, Endogenous Kinase (293)): ~100 µM; EC50 ([4]; HEK293, read-out: EC50 synuclein phosphorylation, endogenous kinase, previous experiments): ~100 µM; EC50 ([4]; HEK293, HEK-293, Example 16, Table 21, read-out: EC50 Based on the Percent Inhibition of Synuclein Phosphorylation, Synuclein + Vector): > 100 µM; EC50 (PLK2 [5]; 293 cells, Table 18, read-out: EC50, Over-Expressed PLK2 (293)): 38 µM; rank order of potency, Over-Expressed PLK2 (293) (PLK2 [5]; 293 cells, Table 19): 5; Rank Order of Potency Based on Percent Inhibition of Synuclein Phosphorylation, Synuclein + PLK2 (PLK2 [5]; HEK-293, Table 22): 3; EC50 [6]: 25.2 µM

Q: What does the source list for Over-Expressed PLK1?
A: Proportion of total synuclein that is phoshorylated at ser-129 ([8]; 48 hours post-transfection, with WT-synuclein): 4.1%; Fold Change in Percent Synuclein Phosphorylation ([8]; relative to endogenous kinase (2.0%)): 2.1
